Laboratory results: patent US12612424B2, “HPK1 inhibitors and uses thereof” (Regor Pharmaceuticals, Inc., priority 2019, dated 2026)
Like-named read-outs stand apart in the source and are kept apart here.

What was measured:
JAK3 = molecular target: T1, JAK3 (Homo sapiens, UniProt P52333); experiment: JAK3 biochemical assay (ADP-GLO Kinase Assay); conditions: for JAKs/HPK1 IC50 Ratio, B* / JAKs/HPK1 IC50 Ratio, N*: ratio of JAK3 IC50 to HPK1 IC50; for JAKs/HPK1 IC50 Ratio, B*: first testing facility; for JAKs/HPK1 IC50 Ratio, N*: second testing facility
T1 construct: purchased Thermo fisher PV3855
Outline: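 Human JAK3 (0.78 ng) with 0.2 μg/μL Poly(E4Y1) and 4 μM ATP in 40 mM Tris pH 7.5, 20 mM MgCl2, 0.1 mg/ml BSA, 50 μM DTT, 1% DMSO; 60 min at 25 °C. ADP formed read by ADP-Glo luminescence. 10-dose 3-fold series from 10 μM; IC50 by three-parameter logistic fit.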

HPK1 = HPK1 (Homo sapiens, UniProt Q92918); experiment: HPK1 biochemical assay (ADP-GLO Kinase Assay)
Outline: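 HPK1 (0.6 ng/μL final) activity was followed with MBP substrate and 10 μM ATP in Tris pH 7.5/MgCl2/BSA/DTT buffer, measured by ADP-Glo luminescence. Compounds were tested as 3-fold dilutions from 10 μM. IC50 came from a three-parameter logistic fit, with inhibition normalised to high/low controls.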

[1] = B*: testing performed in a first testing facility, read-out: JAK3 IC50 (nM) Relative, B*
[2] = B*: testing performed in a first testing facility, read-out: HPK1 IC50 (nM) Relative, B*
[3] = N*: testing performed in a second testing facility, read-out: JAK3 IC50 (nM) Relative, N*
[4] = N*: testing performed in a second testing facility, read-out: HPK1 IC50 (nM) Relative, N*

Chain of HPK1 (Q92918 whole entry): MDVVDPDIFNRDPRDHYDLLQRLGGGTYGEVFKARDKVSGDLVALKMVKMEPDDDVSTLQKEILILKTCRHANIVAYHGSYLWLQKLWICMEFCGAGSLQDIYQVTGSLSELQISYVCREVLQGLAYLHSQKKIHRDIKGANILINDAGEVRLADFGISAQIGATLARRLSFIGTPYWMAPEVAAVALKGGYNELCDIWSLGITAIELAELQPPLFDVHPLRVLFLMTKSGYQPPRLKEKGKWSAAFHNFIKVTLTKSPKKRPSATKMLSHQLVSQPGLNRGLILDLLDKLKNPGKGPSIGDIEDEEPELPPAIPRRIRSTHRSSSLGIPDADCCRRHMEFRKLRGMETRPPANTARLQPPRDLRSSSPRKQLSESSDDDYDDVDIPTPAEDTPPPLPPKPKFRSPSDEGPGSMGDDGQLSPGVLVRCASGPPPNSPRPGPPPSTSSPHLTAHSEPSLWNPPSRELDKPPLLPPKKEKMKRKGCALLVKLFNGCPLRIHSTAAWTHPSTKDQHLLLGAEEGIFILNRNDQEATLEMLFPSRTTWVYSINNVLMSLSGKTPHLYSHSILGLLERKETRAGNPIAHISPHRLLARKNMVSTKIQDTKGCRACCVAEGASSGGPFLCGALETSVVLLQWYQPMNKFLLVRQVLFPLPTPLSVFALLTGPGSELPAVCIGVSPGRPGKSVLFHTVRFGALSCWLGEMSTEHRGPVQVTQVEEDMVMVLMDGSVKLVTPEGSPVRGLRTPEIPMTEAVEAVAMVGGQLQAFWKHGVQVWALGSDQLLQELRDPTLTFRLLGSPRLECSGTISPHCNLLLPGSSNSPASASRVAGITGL
T1 sequence (P52333 781-1124 limits assumed): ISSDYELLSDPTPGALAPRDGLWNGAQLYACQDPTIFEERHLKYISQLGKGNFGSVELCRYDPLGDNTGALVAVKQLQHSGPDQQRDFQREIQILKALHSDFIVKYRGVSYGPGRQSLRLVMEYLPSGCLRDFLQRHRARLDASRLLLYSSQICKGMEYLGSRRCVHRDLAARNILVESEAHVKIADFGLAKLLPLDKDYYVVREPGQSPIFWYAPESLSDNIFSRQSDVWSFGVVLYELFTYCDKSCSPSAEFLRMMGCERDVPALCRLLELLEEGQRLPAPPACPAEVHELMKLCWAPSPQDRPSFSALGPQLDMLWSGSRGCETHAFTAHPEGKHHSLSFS

SMILES | IC50 (JAK3; [1]) [nM] | JAKs/HPK1 IC50 Ratio, B* (JAK3) | IC50 (HPK1; [2]) [nM] | IC50 (JAK3; [3]) [nM] | JAKs/HPK1 IC50 Ratio, N* (JAK3) | IC50 (HPK1; [4]) [nM]
COc1cc2c(cc1Nc1ncc(Cl)c(N3CCc4ccc(C(F)F)cc43)n1)CN(C)CC2 [Example 91, N-(5-chloro-4-(6-(difluoromethyl)indolin-1-yl)pyrimidin-2-yl)-6-methoxy-2-methyl-1,2,3,4-tetrahydroisoquinolin-7-amine] | > 1000 | >1500 | ≤ 100 |  |  | 
COc1cc2c(cc1Nc1ncc(Cl)c(N3CCc4cc(Cl)ccc43)n1)CN(C)CC2 [Example 13, N-(5-chloro-4-(5-chloroindolin-1-yl)pyrimidin-2-yl)-6-methoxy-2-methyl-1,2,3,4-tetrahydroisoquinolin-7-amine] | 500 to 1000 | 62 | ≤ 100 |  |  | 
COc1cc2c(cc1Nc1ncc(Cl)c(-n3ccc4ccccc43)n1)CN(C)CC2 [Example 2, N-(5-chloro-4-(1H-indol-1-yl)pyrimidin-2-yl)-6-methoxy-2-methyl-1,2,3,4-tetrahydroisoquinolin-7-amine] |  |  | ≤ 100 | > 1000 | 642 | ≤ 100
COC(=O)C1CN(c2nc(Nc3cc4c(cc3OC)CCN(C)C4)ncc2C(F)F)c2ccccc21 (stereo not drawn) [Example 112] | > 1000 | >3309 | ≤ 100 |  |  | 
COc1cc2c(cc1Nc1ncc(Cl)c(N3CC(C(=O)NS(C)(=O)=O)c4ccccc43)n1)CN(C)CC2 (stereo not drawn) [Example 98] | > 1000 | 508 | ≤ 100 |  |  | 
COc1cc2c(cc1Nc1ncc(C(F)(F)F)c(-n3ccc4ccccc43)n1)CN(C)CC2 [Example 10, N-(4-(1H-indol-1-yl)-5-(trifluoromethyl)pyrimidin-2-yl)-6-methoxy-2-methyl-1,2,3,4-tetrahydroisoquinolin-7-amine] | > 1000 | >298 | ≤ 100 |  |  | 
COc1cc2c(cc1Nc1ncc(Cl)c(N3CCc4ccccc43)n1)CN(C)CC2 [Example 4, N-(5-Chloro-4-(indolin-1-yl)pyrimidin-2-yl)-6-methoxy-2-methyl-1,2,3,4-tetrahydroisoquinolin-7-amine] | > 1000 | 337 | ≤ 100 | 100 to 500 | 601 | ≤ 100
COc1cc2c(cc1Nc1ncc(Cl)c(N3CC(C)(C(=O)O)c4cc(F)ccc43)n1)CN(C)CC2 (stereo not drawn) [Example 125] | ≤ 100 | 6 | ≤ 100 |  |  | 
COc1ccc2c(c1)N(c1nc(Nc3cc4c(cc3OC)CCN(C)C4)ncc1Cl)CC2C(=O)O (stereo not drawn) [Example 107, 1-(5-Chloro-2-((6-methoxy-2-methyl-1,2,3,4-tetrahydroisoquinolin-7-yl)amino)pyrimidin-4-yl)-6-methoxyindoline-3-carboxylic acid] | > 1000 | 2200 | ≤ 100 |  |  | 
COc1cc2c(cc1Nc1ncc(Cl)c(N3CCc4c(C(F)F)cccc43)n1)CN(C)CC2 [Example 92, N-(5-chloro-4-(4-(difluoromethyl)indolin-1-yl)pyrimidin-2-yl)-6-methoxy-2-methyl-1,2,3,4-tetrahydroisoquinolin-7-amine] | > 1000 | 393 | ≤ 100 |  |  | 
COc1cc2c(cc1Nc1ncc(Cl)c(N3CC(C(=O)O)C4(CCCC4)C3)n1)CN(C)CC2 (stereo not drawn) [Example 169, 2-(5-Chloro-2-((6-methoxy-2-methyl-1,2,3,4-tetrahydroisoquinolin-7-yl)amino)pyrimidin-4-yl)-2-azaspiro[4.4]nonane-4-carboxylic acid] | > 1000 | 1482 | ≤ 100 |  |  | 
CONC(=O)C1CN(c2nc(Nc3cc4c(cc3OC)CCN(C)C4)ncc2Cl)c2ccccc21 (stereo not drawn) [Example 103, 1-(5-Chloro-2-((6-methoxy-2-methyl-1,2,3,4-tetrahydroisoquinolin-7-yl)amino)pyrimidin-4-yl)-N-methoxyindoline-3-carboxamide] | 500 to 1000 | 540 | ≤ 100 |  |  | 
COc1cc2c(cc1Nc1ncc(Cl)c(-n3cc(CC(=O)O)c4cc(F)c(F)cc43)n1)CN(C)CC2 [Example 140] | 500 to 1000 | 783 | ≤ 100 |  |  | 
COc1cc2c(cc1Nc1ncc(Cl)c(-n3cc(CC(=O)NCC#N)c4ccccc43)n1)CN(C)CC2 [Example 137] | > 1000 | 1304 | ≤ 100 |  |  | 
COc1cc2c(cc1Nc1ncc(Cl)c(-n3cc(CC(=O)O)c4ccccc43)n1)CN(C)CC2 [Example 129] | 500 to 1000 | 640 | ≤ 100 |  |  | 
COc1cc2c(cc1Nc1ncc(Cl)c(N3C[C@](C)(C(=O)O)c4ccccc43)n1)CN(C)CC2 (single isomer, unassigned) [Example 118] | > 1000 | 80 | ≤ 100 |  |  | 
COc1cc2c(cc1Nc1ncc(Cl)c(N3CC(P(C)(C)=O)c4ccccc43)n1)CN(C)CC2 (stereo not drawn) [Example 88] | > 1000 |  | ≤ 100 |  |  | 
COc1cc2c(cc1Nc1ncc(Cl)c(-n3cc(C(C)C(=O)O)c4ccccc43)n1)CN(C)CC2 (stereo not drawn) [Example 142] | 500 to 1000 | 117 | ≤ 100 |  |  | 
CNC(=O)Cc1cn(-c2nc(Nc3cc4c(cc3OC)CCN(C)C4)ncc2Cl)c2ccccc12 [Example 136] | 500 to 1000 | 438 | ≤ 100 |  |  | 
COc1cc2c(cc1Nc1ncc(Cl)c(-n3cc(Cc4nn[nH]n4)c4ccccc43)n1)CN(C)CC2 [Example 135, N-(4-(3-((2H-tetrazol-5-yl)methyl)-1H-indol-1-yl)-5-chloropyrimidin-2-yl)-6-methoxy-2-methyl-1,2,3,4-tetrahydroisoquinolin-7-amine] | 500 to 1000 | 269 | ≤ 100 |  |  | 
COc1cc2c(cc1Nc1ncc(Cl)c(N3CC(C)(CC(=O)O)c4ccccc43)n1)CNCC2 (stereo not drawn) [Example 160, 2-(1-(5-Chloro-2-((6-methoxy-1,2,3,4-tetrahydroisoquinolin-7-yl)amino)pyrimidin-4-yl)-3-methylindolin-3-yl)acetic acid methanesulfonic acid] | ≤ 100 | 97 | ≤ 100 |  |  | 
COc1cc2c(cc1Nc1ncc(Cl)c(-n3cc(CC#N)c4ccccc43)n1)CN(C)CC2 [Example 134] | 500 to 1000 | 243 | ≤ 100 |  |  | 
COC(=O)C1(C)CN(c2nc(Nc3cc4c(cc3OC)CCN(C)C4)ncc2Cl)c2ccccc21 (stereo not drawn) [Example 116] | > 1000 | 890 | ≤ 100 |  |  | 
CNC(=O)C1(C)CN(c2nc(Nc3cc4c(cc3OC)CCN(C)C4)ncc2Cl)c2ccccc21 (stereo not drawn) [Example 122] | ≤ 100 | 100 | ≤ 100 |  |  | 
COc1cc2c(cc1Nc1ncc(Cl)c(N3CC(C(=O)O)c4ccccc43)n1)CN(C)CC2 (single isomer, unassigned) [Example 96] | ≤ 100 | 80 | ≤ 100 |  |  | 
COc1cc2c(cc1Nc1ncc(Cl)c(N3CC(C)(CC(=O)O)c4ccc(F)cc43)n1)CN(C)CC2 (single isomer, unassigned) [Example 153] | > 1000 | 358 | ≤ 100 |  |  | 
COc1cc2c(cc1Nc1ncc(Cl)c(N3C[C@@](C)(C(=O)O)c4ccccc43)n1)CN(C)CC2 (single isomer, unassigned) [Example 119] | ≤ 100 | 10 | ≤ 100 |  |  | 
COc1cc2c(cc1Nc1ncc(Cl)c(N3CC(C)(C#N)c4ccccc43)n1)CN(C)CC2 (stereo not drawn) [Example 121, 1-(5-Chloro-2-((6-methoxy-2-methyl-1,2,3,4-tetrahydroisoquinolin-7-yl)amino)pyrimidin-4-yl)-3-methylindoline-3-carbonitrile] | ≤ 100 | 50 | ≤ 100 |  |  | 
CCOC(=O)CC1(C)CN(c2nc(Nc3cc4c(cc3OC)CCN(C)C4)ncc2Cl)c2ccccc21 (stereo not drawn) [Example 149] | > 1000 | >944 | ≤ 100 |  |  | 
